# Measured values as given in patent publication US5583224A, “Isolation and elucidation of cephalostatin 7, 8 and 9” (Arizona Board of Regents acting on behalf of Arizona State …, priority 1993, dated 1996).
# Assays:
# [1] = test system: P388 lymphocytic leukemia cell line; assay: P388 lymphocytic leukemia (PS) cell line growth inhibition in vitro; format: cell-based, murine
# [2] = test system: panel of 60 human tumor cell lines; assay: NCI standard human tumor cell line panel (60 cell lines); format: cell-based; settings: for activity against human cancer cell lines: panel of human cancer cell lines employed by NCI
# Description: Current research in the control of cancer in the United States is coordinated by the National Cancer Institute (NCI). To determine whether a substance has anti-cancer properties, the NCI has established a systematic protocol. […] The protocol, and the established statistical means for analyzing the results obtained by the standardized testing are fully described in the literature. See: Boyd, Dr. Michael R., Principles & Practice of Oncology, PPO Updates, Volume 3, Number 10, Oct. 1989, for an in depth description of the testing protocol; and Paull, K. D., "Display and Analysis of Patterns of Differential Activity of Drugs Against Human Tumor Cell Lines; Development of Mean Graph and COMPARE Algorithm", Journal of the National Cancer Institute Reports, Vol. 81, No. 14, Page 1088, Jul. 14, 1989 for a description of the methods of statistical analysis. Both of these references are incorporated herein by this reference thereto.
# [3] = test system: P388 lymphocytic leukemia cell line; settings: first chemical study, Pettit et al., J. Am. Chem. Soc 1988; cited from earlier work
SMILES,activity against murine P388 lymphocytic leukemia (PS system) [1],activity against other NCI cell lines ([2]; other NCI cell lines),activity against human cancer cell lines [2],activity against human cancer cell lines ([2]; listed as cephalostatin 9),P388 ED50 [3]
CC1[C@@H]2CC=C3C4CCC5Cc6nc7c(nc6C[C@@]5(C)C4CC(=O)[C@]32CO[C@@]1(O)C(O)CC(C)(C)O)CC1CCC2C3=C[C@H]4O[C@@]5(O[C@@](C)(CO)C[C@@H]5O)C(C)[C@@]4(O)[C@]3(C)[C@@H](O)CC2[C@]1(C)C7 (some centres unmarked) [Cephalostatin 9],confirmed active level,confirmed active level,powerful inhibitors of various human tumor cell lines,very strong and selective activity,
C[C@@H]1[C@]2(O[C@H]3C=C4[C@@H]5CC[C@H]6Cc7nc8c(nc7C[C@]6(C)[C@H]5C[C@@H](O)[C@]4(C)[C@]31O)C[C@@H]1CC[C@H]3C4=CC[C@@H]5[C@H](C)[C@@]6(OC[C@]45C(=O)C[C@@H]3[C@@]1(C)C8)OC(C)(C)C[C@H]6O)O[C@](C)(CO)C[C@H]2O [cephalostatin 1],,,,,10^-7 to 10^-9 μg/mL
